Measurements reported in patent publication US20250123267A1, “INHIBITORS OF MICROTUBULE POLYGLUTAMYLATION IN MITOSIS FOR USE AS A MEDICAMENT” (FUNDACIÓ CENTRE DE REGULACIÓ GENÒMICA, priority 2021, published 2025).

How the values were obtained:
Type in all cases: in vivo, Danio rerio
zebrafish embryos [1] = assay: Chromosome segregation in blastula stage zebrafish embryos (live and fixed imaging)
Procedure: (§1) Morpholino antisense oligonucleotides were designed and purchased from Gene Tools, LLC. To inhibit ttll11 we used a blocking translation SEQ ID NO: 22 MO ([…]) and a standard control SEQ ID NO: 23 MO ([…]) as a negative control. We injected 2.8 ng of morpholino into one-cell stage embryos.
Zebrafish embryos at the sphere stage (2.5-4 hpf) were dechorionated and incubated overnight at RT shacking in the microtubule fixative solution (20). The MT-fixative was discarded, and the embryos were put in methanol at −20° C. overnight. After fixation was completed zebrafish embryos were transferred in a clean tube and washed 3 times during 5 min with tergitol at room temperature for rehydration. Embryos were then moved to a well of a 96-well plate and an overnight wash with the anti-autofluorescence buffer (PBS 1×, 100 mM NaBH4) was performed at RT gently shacking. Buffer in the well was changed with TBS 1× for 5 extensive washes.
Embryos underwent the blocking step with TBS 1× with 2% BSA for 30 minutes RT gently shacking. Anti-polyE (1.1 μg/ml, home-made) and -β-tubulin (clone E7; Hybridoma Bank at University of Iowa) primary antibodies were added both at 1:200 dilution and left ON at 4° C. gently shacking. […]
Fixed embryos were imaged in glass bottom Mattek dishes using a 63× oil-immersion 1.4 NA objective on a TCS SP5 inverted Leica confocal microscope. Laser intensity used changed through experiments according to the tubulin levels detected.
For zfTTLL11 localization experiments zebrafish eggs were fertilized, collected and microinjected with zfTTLL11 mRNA with a micromanipulator (M3301R, WPI (World precision instruments). The quantity injected are relative to the ones specified in “Morpholinos, mRNA synthesis and microinjection” section, according to de experiment. Embryos at sphere stage were manually dechorionated and moved in a tube containing low melting agarose at 42° C. diluted in TBS 1× and immediately in a Mattek dish with 7 mm diameter glass bottom and oriented with epithelial layer cells toward the glass slide before the agarose solidified. […]

zebrafish embryos [2] = assay: Morphological zebrafish analysis at 36 hpf after morpholino injection
Procedure: as §1
(§2) All capped mRNAs were synthesized using mMessage mMachine SP6 (Ambion, AM1340M). For the rescue experiments, […] of ttll11 mRNA was injected together with the indicated MO. […] of E466G mRNA (ttll11 mutated version) was injected together with the indicated MO as a negative control of the rescue experiments. GFP-Ttll11 mRNA was injected into one-cell stage embryos to visualize protein localization.
Zebrafish embryos at 36 hpf were anaesthetized with tricaine methane sulfonate (MS-222, Sigma Aldrich) The morphological phenotype was evaluated on site with an Olympus SZX16 scope equipped with an Olympus DP73 camera. Representative images were analyzed with ImageJ.

zebrafish embryos [3] = assay: Embryonic lethality of morpholino injected zebrafish embryos; conditions: first 4 hours of development
Procedure: as §1, §2

[4] = 36 hpf, injected at one-cell stage

Substance: MO-1: blocking translation morpholino against zebrafish ttll11, SEQ ID NO: 22 (CGGCTGATTTGTTATCTCATCTAGG) (all phosphorodiamidate morpholino (PMO))
- embryos with at least one anaphase cell with a lagging chromosome (zebrafish embryos [1]; blastula stage, 4D time-lapse imaging): Most
- chromosome segregation fidelity in fixed embryos (zebrafish embryos [1]; fixed embryos, anaphase cells with lagging chromosomes): compromised
- cells with micronuclei (zebrafish embryos [1]; injected embryos): many cells with micronuclei
- phenotype Frequency Mild (%) (zebrafish embryos [2]; [4]): 28.6%
- phenotype Frequency Normal (%) (zebrafish embryos [2]; [4]): 14.3%
- phenotype Frequency Severe (%) (zebrafish embryos [2]; [4]): 57.1%
- embryos with developmental defects (zebrafish embryos [2]; injected embryos, mild tilted tails to gross abnormalities): 60%
- embryonic lethality (zebrafish embryos [3]): increase of embryonic lethality
